In ChEMBL document CHEMBL5365437, “Cannabinoformins: Designing Biguanide-Embedded, Orally Available, Peripherally Selective Cannabinoid-1 Receptor Antagonists for Metabolic Syndrome Disorders” (J Med Chem, 2023) one finds Activity, IC50 and Ki data, which are given here for 36 molecules.

Assay [1] concerns the target T1, AMP-activated protein kinase (AMPK) alpha-1/beta-1/gamma-1 (Homo sapiens) (UniProt P54619+Q9Y478+Q13131). The assay is described as follows: Activation of recombinant AMPK alpha1/beta1/gamma1 (unknown origin) at 10 uM relative to control. The class given is protein-complex assay. The note with it: filed as activator.
Assay [2] has as its target T1, AMP-activated protein kinase (AMPK) alpha-1/beta-1/gamma-1 (Homo sapiens). The assay is described as follows: Activation of recombinant AMPK alpha1/beta1/gamma1 (unknown origin) at 1 uM relative to control. The class given is protein-complex assay. The following applies: filed as activator.
For assay [3], the target named is T2, Cannabinoid receptor 1 (Mus musculus, UniProt P47746). The assay is described as follows: Antagonist activity at CB1 receptor in mouse brain membrane assessed as inhibition of […]-induced GTPgammaS binding by [35S]GTPgammaS binding analysis. The class given is functional, cell membranes. On the technique in general: GTPγS resists hydrolysis and so accumulates on activated G proteins.

The target of assay [4] is T2, Cannabinoid receptor 1. The assay is described as follows: Displacement of [3H][…] from CB1 receptor in mouse brain plasma membrane by radioligand displacement analysis. The class given is cell membranes.

Bounds are passed on as bounds.

T1 sequence (P54619 whole entry): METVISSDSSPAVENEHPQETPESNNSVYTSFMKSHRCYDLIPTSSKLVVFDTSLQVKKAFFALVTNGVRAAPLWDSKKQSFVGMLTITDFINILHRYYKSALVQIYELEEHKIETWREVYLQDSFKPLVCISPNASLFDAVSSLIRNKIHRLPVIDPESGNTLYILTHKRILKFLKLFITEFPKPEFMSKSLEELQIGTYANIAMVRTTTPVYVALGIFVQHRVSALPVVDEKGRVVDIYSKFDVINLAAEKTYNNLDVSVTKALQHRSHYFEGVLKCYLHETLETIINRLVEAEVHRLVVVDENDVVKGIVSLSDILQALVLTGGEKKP
T1 sequence (Q13131 whole entry partner): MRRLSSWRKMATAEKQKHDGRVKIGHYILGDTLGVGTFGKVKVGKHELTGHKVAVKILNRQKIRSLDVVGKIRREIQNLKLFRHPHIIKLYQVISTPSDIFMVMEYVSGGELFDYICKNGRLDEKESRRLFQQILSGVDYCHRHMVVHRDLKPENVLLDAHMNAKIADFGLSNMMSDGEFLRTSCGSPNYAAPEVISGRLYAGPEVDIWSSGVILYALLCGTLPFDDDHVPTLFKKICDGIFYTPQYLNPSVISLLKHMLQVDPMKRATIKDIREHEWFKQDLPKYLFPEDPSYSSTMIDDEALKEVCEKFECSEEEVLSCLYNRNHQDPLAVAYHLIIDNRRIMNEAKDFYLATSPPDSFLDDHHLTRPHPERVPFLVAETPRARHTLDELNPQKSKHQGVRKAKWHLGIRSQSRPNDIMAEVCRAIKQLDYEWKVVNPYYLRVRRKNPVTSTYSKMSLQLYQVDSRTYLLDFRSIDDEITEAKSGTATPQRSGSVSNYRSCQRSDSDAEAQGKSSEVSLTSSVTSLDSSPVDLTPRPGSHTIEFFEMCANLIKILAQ
T1 sequence (Q9Y478 2-270 partner limits assumed): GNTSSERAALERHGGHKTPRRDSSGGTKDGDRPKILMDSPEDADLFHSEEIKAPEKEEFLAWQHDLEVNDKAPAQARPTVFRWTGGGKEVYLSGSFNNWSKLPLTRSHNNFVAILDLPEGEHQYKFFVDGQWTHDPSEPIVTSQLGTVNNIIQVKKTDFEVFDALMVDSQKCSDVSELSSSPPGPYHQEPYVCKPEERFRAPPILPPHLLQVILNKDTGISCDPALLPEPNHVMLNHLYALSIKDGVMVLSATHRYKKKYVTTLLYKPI
T2 sequence (P47746 whole entry): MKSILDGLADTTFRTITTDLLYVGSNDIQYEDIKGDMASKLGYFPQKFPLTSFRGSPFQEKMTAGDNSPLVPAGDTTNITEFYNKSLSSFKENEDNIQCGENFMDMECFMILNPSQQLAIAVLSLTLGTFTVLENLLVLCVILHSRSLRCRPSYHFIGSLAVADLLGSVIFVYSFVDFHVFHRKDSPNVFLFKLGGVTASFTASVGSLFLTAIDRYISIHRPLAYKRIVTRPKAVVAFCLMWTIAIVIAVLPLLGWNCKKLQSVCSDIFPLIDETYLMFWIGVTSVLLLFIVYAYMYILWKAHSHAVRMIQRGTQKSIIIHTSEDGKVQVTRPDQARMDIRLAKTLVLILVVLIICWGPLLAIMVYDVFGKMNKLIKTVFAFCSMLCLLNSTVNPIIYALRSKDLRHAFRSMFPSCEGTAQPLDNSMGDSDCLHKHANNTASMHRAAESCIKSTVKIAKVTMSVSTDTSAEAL

Consider `N/C(=N\C(=N\S(=O)(=O)c1ccc(Cl)cc1)N1CC(c2ccccc2)C(c2ccc(Cl)cc2)=N1)NCc1ccccc1` (stereo not given), for which, in assay [1], the Activity is 149%.
The same measure, in the same setting: in the case of `C=CCN(CC=C)/C(N)=N/C(=N/S(=O)(=O)c1ccc(Cl)cc1)N1CC(c2ccccc2)C(c2ccc(Cl)cc2)=N1` (stereo not given) it was 157%; in that of `N/C(=N\C(=N\S(=O)(=O)c1ccc(Cl)cc1)N1CC(c2ccccc2)C(c2ccc(Cl)cc2)=N1)N1CCCC1` (stereo not given), 135%; in that of `CC(C)N/C(N)=N/C(=N/S(=O)(=O)c1ccc(Cl)cc1)N1CC(c2ccccc2)C(c2ccc(Cl)cc2)=N1` (stereo not given), 145%.
As to `COCCN/C(N)=N/C(=N/S(=O)(=O)c1ccc(Cl)cc1)N1CC(c2ccccc2)C(c2ccc(Cl)cc2)=N1` (stereo not given), the Activity in assay [1] turned out to be 156%.
For orientation: IC50 means the concentration at which inhibition is half-maximal. What is called Ki is the dissociation constant of the complex between target and ligand, obtained from inhibition or displacement. Lower therefore signals a stronger hold on the target. On to `CC(=O)N/C(N)=N/C(=N/S(=O)(=O)c1ccc(I)cc1)N1CC(c2ccccc2)C(c2ccc(Cl)cc2)=N1` (stereo not given), for which the Activity in assay [2] was found to be 121%. The IC50 in assay [3] was 2.8 nM. Moreover, the Ki in assay [4] came out at 3.2 nM.
`N/C(=N\C(=N\S(=O)(=O)c1ccc(Cl)cc1)N1CC(c2ccccc2)C(c2ccc(Cl)cc2)=N1)NC12C[C@H]3C[C@@H](C1)C[C@@H](C2)C3` (stereo not given in full) came in with a Ki in assay [4] greater than 1000 nM.
Take `CC(=O)N/C(N)=N/C(=N/S(=O)(=O)c1ccc2ccccc2c1)N1C[C@@H](c2ccccc2)C(c2ccc(Cl)cc2)=N1`: the Ki in assay [4] is 78 nM.
Regarding `CC(=O)N/C(N)=N/C(=N/S(=O)(=O)c1ccc(Br)cc1)N1CC(c2ccccc2)C(c2ccc(Cl)cc2)=N1` (stereo not given), in assay [2], the Activity is 94%. For the same molecule, the IC50 in assay [3] stood at 4.9 nM. For the same molecule, the Ki in assay [4] came out at 0.6 nM.
The matching figures for `N/C(=N\C(=N\S(=O)(=O)c1ccc2ccccc2c1)N1CC(c2ccccc2)C(c2ccc(Cl)cc2)=N1)NC(=O)c1ccccc1` (stereo not given): 90%, 66 nM and 8.1 nM.
On to `CN(Cc1ccccc1)/C(N)=N/C(=N/S(=O)(=O)c1ccc(Cl)cc1)N1CC(c2ccccc2)C(c2ccc(Cl)cc2)=N1` (stereo not given), for which the Activity in assay [1] worked out at 153%.
For `COc1ccc(S(=O)(=O)/N=C(/N=C(\N)NC(C)=O)N2CC(c3ccccc3)C(c3ccc(Cl)cc3)=N2)cc1` (stereo not given), the Activity in assay [2] is 98%. Further, the IC50 in assay [3] was 16 nM. The molecule also displayed a Ki in assay [4] of 13 nM.
`CN/C(N)=N/C(=N/S(=O)(=O)c1ccc(Cl)cc1)N1CC(c2ccccc2)C(c2ccc(Cl)cc2)=N1` (stereo not given): in assay [1], the Activity was 139%.
Take `N/C(=N\C(=N\S(=O)(=O)c1ccc(OC(F)(F)F)cc1)N1CC(c2ccccc2)C(c2ccc(Cl)cc2)=N1)NC(=O)c1ccccc1` (stereo not given): in assay [2], the Activity was 104%. The IC50 in assay [3] turned out to be 86 nM. Further, the inhibitory constant (Ki) in assay [4] worked out at 13 nM.
On to `CC(=O)N/C(N)=N/C(=N/S(=O)(=O)c1ccc(C)cc1)N1CC(c2ccccc2)C(c2ccc(Cl)cc2)=N1` (stereo not given), for which the Activity in assay [2] is 96%. Also, the IC50 in assay [3] stood at 19 nM. Further, affinity in assay [4] was put at a Ki of 8.6 nM.
On to `N/C(=N\C(=N\S(=O)(=O)c1ccc(I)cc1)N1CC(c2ccccc2)C(c2ccc(Cl)cc2)=N1)NC(=O)c1ccccc1` (stereo not given), for which the Activity in assay [2] turned out to be 96%. Also, in assay [3], the IC50 turned out to be 14 nM. Affinity in assay [4] was put at a Ki of 5.5 nM.
Consider `CC(=O)N/C(N)=N/C(=N/S(=O)(=O)c1ccc(F)cc1)N1CC(c2ccccc2)C(c2ccc(Cl)cc2)=N1` (stereo not given), for which, in assay [2], the Activity was 95%. For the same molecule, in assay [3], the IC50 was 10 nM. The same molecule gave a Ki in assay [4] of 2.3 nM.
Take `CCC(=O)N/C(N)=N/C(=N/S(=O)(=O)c1ccc(Cl)cc1)N1CC(c2ccccc2)C(c2ccc(Cl)cc2)=N1` (stereo not given): in assay [2], the Activity was 91%. In addition, the 50% inhibitory concentration (IC50) in assay [3] worked out at 6 nM. Moreover, the affinity in assay [4], expressed as Ki, was 2.8 nM.
For the molecule `Cc1ccc(S(=O)(=O)/N=C(/N=C(\N)NC(=O)c2ccccc2)N2CC(c3ccccc3)C(c3ccc(Cl)cc3)=N2)cc1` (stereo not given), the Activity in assay [2] came out at 102%. Also, in assay [3], the IC50 was determined as 59 nM. Moreover, in assay [4], the affinity, expressed as Ki, was 25 nM.
In turn, `N/C(=N\C(=N\S(=O)(=O)c1ccc(Cl)cc1)N1CC(c2ccccc2)C(c2ccc(Cl)cc2)=N1)NCC12C[C@H]3C[C@@H](C1)C[C@@H](C2)C3` (stereo not given in full) came in with a Ki in assay [4] greater than 1000 nM.
In assay [4], `CN=C(NS(=O)(=O)c1ccc(Cl)cc1)N1C[C@H](c2ccccc2)C(c2ccc(Cl)cc2)=N1` [IBIPINABANT] returned a Ki of 8.1 nM.
Take `CN/C(=N\S(=O)(=O)c1ccc(Cl)cc1)N1C[C@H](c2ccccc2)C(c2ccc(Cl)cc2)=N1`: in assay [1], the Activity was 100%.
Take `CC(=O)N/C(N)=N/C(=N/S(=O)(=O)c1ccc(OC(F)(F)F)cc1)N1CC(c2ccccc2)C(c2ccc(Cl)cc2)=N1` (stereo not given): the Activity in assay [2] turned out to be 125%. Also, the IC50 in assay [3] was 3.2 nM.
As for `CC(=O)N/C(N)=N/C(=N/S(=O)(=O)N1CCOCC1)N1CC(c2ccccc2)C(c2ccc(Cl)cc2)=N1` (stereo not given), the Activity in assay [2] came to 162%. Moreover, the IC50 in assay [3] stood at 2 nM. Besides, in assay [4], the affinity, expressed as Ki, was 2.3 nM.
The matching figures for `COc1ccc(S(=O)(=O)/N=C(/N=C(\N)NC(=O)c2ccccc2)N2CC(c3ccccc3)C(c3ccc(Cl)cc3)=N2)cc1` (stereo not given): 98%, 68 nM and 8.5 nM.
As for `CC(=O)N/C(N)=N/C(=N/S(=O)(=O)c1ccc(Cl)cc1)N1CC(c2ccccc2)C(c2ccc(Cl)cc2)=N1` (stereo not given), in assay [2], the Activity worked out at 142%. Also, in assay [3], the IC50 was found to be 3.1 nM. In addition, affinity in assay [4] was put at a Ki of 2.9 nM.
Regarding `N/C(=N\C(=N\S(=O)(=O)c1ccc(Cl)cc1)N1CC(c2ccccc2)C(c2ccc(Cl)cc2)=N1)NC(=O)c1ccccc1` (stereo not given), the Activity in assay [2] amounted to 100%. For the same molecule, the IC50 in assay [3] was found to be 25 nM. In assay [4], this molecule displayed an inhibition constant Ki of 0.8 nM.
As to `CCN(CC)S(=O)(=O)/N=C(/N=C(\N)NC(C)=O)N1CC(c2ccccc2)C(c2ccc(Cl)cc2)=N1` (stereo not given), the Activity in assay [2] turned out to be 152%. In addition, in assay [3], the IC50 worked out at 2.1 nM. In addition, the Ki in assay [4] was 1.3 nM.
As to `CC(=O)N/C(N)=N/C(=N/S(=O)(=O)c1ccc(C(C)(C)C)cc1)N1CC(c2ccccc2)C(c2ccc(Cl)cc2)=N1` (stereo not given), in assay [2], the Activity came to 118%. In addition, in assay [3], the IC50 was found to be 1.4 nM.
With `CC(=O)N/C(N)=N/C(=N/S(=O)(=O)c1ccccc1)N1CC(c2ccccc2)C(c2ccc(Cl)cc2)=N1` (stereo not given), the Activity in assay [2] was 93%. Moreover, in assay [3], the IC50 was found to be 21 nM. The molecule also gave a Ki in assay [4] of 6.8 nM.
The like results for `CCC(=O)N/C(N)=N/C(=N/S(=O)(=O)c1ccc(C(F)(F)F)cc1)N1CC(c2ccccc2)C(c2ccc(Cl)cc2)=N1` (stereo not given) were, in that order, 96%, 5.5 nM and 3.3 nM.
The like results for `CC(=O)N/C(N)=N/C(=N/S(=O)(=O)c1ccc2ccccc2c1)N1CC(c2ccccc2)C(c2ccc(Cl)cc2)=N1` (stereo not given) were, in that order, 117%, 6.1 nM and 16 nM.
Molecule `NC(N)=N/C(=N/S(=O)(=O)c1ccc(Cl)cc1)N1CC(c2ccccc2)C(c2ccc(Cl)cc2)=N1` (stereo not given) returned a Ki in assay [4] of 415 nM.
Turning to `N/C(=N\C(=N\S(=O)(=O)c1ccc(C(F)(F)F)cc1)N1CC(c2ccccc2)C(c2ccc(Cl)cc2)=N1)NC(=O)c1ccccc1` (stereo not given), the Activity in assay [2] was 101%. The IC50 in assay [3] amounted to 6.1 nM. Besides, affinity in assay [4] was put at a Ki of 3 nM.
The matching figures for `CC(=O)N/C(N)=N/C(=N/S(=O)(=O)c1ccc(C#N)cc1)N1CC(c2ccccc2)C(c2ccc(Cl)cc2)=N1` (stereo not given): 91%, 5.8 nM and 0.4 nM.
In the case of `CC(=O)N/C(N)=N/C(=N/S(=O)(=O)c1ccc(C(C)C)cc1)N1CC(c2ccccc2)C(c2ccc(Cl)cc2)=N1` (stereo not given), the Activity in assay [2] turned out to be 119%. The IC50 in assay [3] amounted to 1.7 nM. In assay [4], the Ki was found to be 3.7 nM.
